“Also recorded” adds a separate entry of the source.
What was measured:
[1] = tested on: target cells (C1R-A33) pulsed with peptide; assay: IFN-gamma ELISA of CTL clones established by limiting dilution (HLA-A*33:03); type: cell-based, human; settings: CTL clone against peptide-pulsed C1R-A33
Experimental: (§1) After induction of CTLs in vitro, the CTLs were seeded onto 96-well round-bottomed microplates (Nalge Nunc International) at 1 cell/well or 10 cells/well. The CTLs were cultured with two types of Mitomycin C-treated human B lymphoblastoid cell lines (1×10^4 cells/well each) in a total of 150 micro-l/well 5% ABS/AIM-V medium with an anti-CD3 antibody (final concentration: 30 ng/ml) and IL-2 (final concentration: 125 IU/ml). Ten days later, 50 micro-l 5% ABS/AIM-V medium containing 500 IU/ml IL-2 was added to the culture.
(§2) Peptide-pulsed C1R-A33 (1×10^4 cells/well) was prepared as the target cell. The IFN-gamma ELISPOT assay and IFN-gamma ELISA were performed according to the assay kit manufacturer's manual.

[2] = tested on: COS7 cells expressing FOXM1 and HLA-A*33:03; assay: IFN-gamma production of CTL clone against target cells expressing FOXM1 and HLA-A*33:03; type: cell-based, African green monkey
Text: A cDNA encoding the FOXM1 or HLA-A*33:03 gene was amplified by PCR. The PCR-amplified product was each incorporated into an expression vector. Either or both of the FOXM1 gene-expressing vector and the HLA-A*33:03 gene-expressing vector were introduced into COS7 cells, which is a cell line negative for HLA, using Lipofectamine 2000 (Invitrogen). On the day after gene introduction, COS7 cells were detached and harvested using versene (Invitrogen), and used as the target cell for confirmation of IFN-gamma production (5×10^4 cells/well).
IFN-gamma production of the FOXM1-A33-9-308 (SEQ ID NO: 2)-specific CTL clone against target cells expressing FOXM1 and HLA-A*33:03 was investigated. COS7 cells expressing both FOXM1 and HLA-A*33:03 were prepared as the target cell. COS7 cells expressing either one of FOXM1 and HLA-A*33:03 were prepared as the negative control cell. […] This clearly proves that FOXM1-A33-9-308 (SEQ ID NO: 2) is a peptide generated by antigen processing, and is presented on the cell surface with the HLA-A*33:03 molecule and recognized by CTLs.

[3] = tested on: target cells (C1R-A33) pulsed with peptide; assay: IFN-gamma ELISA of CTL lines (HLA-A*33:03); type: cell-based, human; settings: CTL line against peptide-pulsed C1R-A33
Experimental: CTLs were propagated using methods similar to those reported by Riddell et al. (Walter E A et al., N Engl J Med 1995, 333(16): 1038-44; Riddell S R et al., Nat Med 1996, 2(2): 216-23). The CTLs were cultured in 25 ml 5% ABS/AIM-V medium together with two types of Mitomycin C-treated human B lymphoblastoid cell lines (5×10^6 cells/25 ml medium each) and an anti-CD3 antibody (final concentration: 40 ng/ml). On the day after beginning of the culturing, IL-2 (final concentration: 120 IU/ml) was added to the culture. On days 5, 8 and 11, the medium was changed to a 5% ABS/AIM-V medium containing IL-2 (final concentration: 30 IU/ml) (Tanaka H et al., Br J Cancer 2001, 84(1): 94-9; Umano Y et al., Br J Cancer 2001, 84(8): 1052-7; Uchida N et al., Clin Cancer Res 2004, 10(24): 8577-86; Suda T et al., Cancer Sci 2006, 97(5): 411-9; Watanabe T et al., Cancer Sci 2005, 96(8): 498-506).
as §2

peptide-pulsed C1R-A01 = assay: In vitro CTL induction, IFN-gamma ELISPOT assay (HLA-A*01:01); type: cell-based, human; settings: CD8 positive T cells of HLA-A*01:01-positive donors after three stimulations with peptide-pulsed DCs; peptide-pulsed vs non-pulsed C1R-A01
Experimental: Monocyte-derived dendritic cells (DCs) were used as the antigen-presenting cell to induce a specific cytotoxic T lymphocyte (CTL) against peptides presented on human leukocyte antigens (HLAs). As already reported in literatures, DCs were generated in vitro (Nakahara S et al., Cancer Res 2003, 63(14): 4112-8). Specifically, peripheral-blood mononuclear cells (PBMCs) collected from healthy volunteers (HLA-A*01:01-positive) were seeded in plastic tissue culture dishes (Corning) to let the monocytes in the PBMCs adhere to the dishes. This was cultured in the presence of 1000 IU/ml granulocyte macrophage colony-stimulating factor (R&D System) and 1000 IU/ml interleukin (IL)-4 (R&D System) for seven days. An AIM-V medium (Invitrogen) containing 5% inactivated AB-type serum (ABS) was used as the medium. DCs that were induced to differentiate from monocytes using the cytokines were pulsed with 20 micro-g/ml of each synthesized peptide (37 degrees C., three hours). Peptide pulsing was carried out in an AIM-V medium containing 3 micro-g/ml beta 2-microglobulin. These peptide-pulsed DCs were inactivated by X-ray irradiation (20 Gy), mixed in a 1:20 ratio with autologous CD8 positive T cells obtained by using the CD8 Positive Isolation Kit (Invitrogen) (1.5×10^4 DCs and 3×10^5 CD8 positive T cells), and cultured in a 48-well plate (Corning). […]

peptide-pulsed C1R-A33 = assay: In vitro CTL induction, IFN-gamma ELISPOT assay (HLA-A*33:03); type: cell-based, human; settings: CD8 positive T cells of HLA-A*33:03-positive donors after three stimulations with peptide-pulsed DCs; peptide-pulsed vs non-pulsed C1R-A33
Experimental: Monocyte-derived dendritic cells (DCs) were used as the antigen-presenting cell to induce a specific cytotoxic T lymphocyte (CTL) response against peptides presented on human leukocyte antigens (HLAs). As already reported in literatures, DCs were generated in vitro (Nakahara S et al., Cancer Res 2003, 63(14): 4112-8). Specifically, peripheral-blood mononuclear cells (PBMCs) collected from healthy volunteers (HLA-A*33:03-positive) with the Ficoll-Paque plus solution (Pharmacia) were seeded in plastic tissue culture dishes (Corning) to let the monocytes in the PBMCs adhere to the dishes. This was cultured in the presence of 1000 IU/ml granulocyte macrophage colony-stimulating factor (R&D System) and 1000 IU/ml interleukin (IL)-4 (R&D System) for seven days. An AIM-V medium (Invitrogen) containing 5% inactivated AB-type serum (ABS) was used as the medium. DCs that were induced to differentiate from monocytes using the cytokines were pulsed with 20 micro-g/ml of each synthesized peptide (37 degrees C., three hours). Peptide pulsing was carried out in an AIM-V medium containing 3 micro-g/ml beta 2-microglobulin. These peptide-pulsed DCs were inactivated by X-ray irradiation (20 Gy), mixed in a 1:20 ratio with autologous CD8 positive T cells obtained by positive selection using the CD8 Positive Isolation Kit (Invitrogen) (1.5×10^4 DCs and 3×10^5 CD8 positive T cells), and cultured in a 48-well plate (Corning). Each well contained 0.5 ml of the 5% ABS/AIM-V medium, and IL-7 (R&D System) was added thereto (final concentration: 10 ng/ml). Two days after the start of the culture, IL-2 (Novartis) was added (final concentration: 20 IU/ml). On day 7 and day 14 of culture, the CD8 positive T cells were further stimulated with peptide-pulsed DCs. The DCs were prepared at the time of use by the same method as above. […]

[4] = tested on: target cells (C1R-A01) pulsed with peptide; assay: IFN-gamma ELISA of CTL clones established by limiting dilution (HLA-A*01:01); type: cell-based, human; settings: CTL clone against peptide-pulsed C1R-A01; listed as FOXM1-A01-9-233
Experimental: as §1
Peptide-pulsed C1R-A01 (1×10^4 cells/well) was prepared as the target cell. The IFN-gamma ELISPOT assay and IFN-gamma ELISA were performed according to the assay kit manufacturer's manual.

Sequence: WTIHPSANR (a peptide derived from FOXM1) [SEQ ID NO: 2]
- peptide-specific IFN-gamma production of CTL clone (ELISA) ([1]; listed as FOXM1-A33-9-308): showed a peptide-specific IFN-gamma production
- IFN-gamma production of peptide-specific CTL clone ([2]; COS7 cells expressing both FOXM1 and HLA-A*33:03): showed IFN-gamma production
- IFN-gamma production of peptide-specific CTL clone ([2]; negative control: COS7 cells expressing either one of FOXM1 and HLA-A*33:03, listed as FOXM1-A33-9-308): a significant IFN-gamma production was not observed; also recorded: a significant IFN-gamma production was not shown
- IFN-gamma production by the CTL line (ELISA) ([3]; listed as FOXM1-A33-9-308): observed; also recorded: CTL lines that produce IFN-gamma in a peptide-specific manner were established

Sequence: WIEDHFPYFK (a peptide derived from FOXM1) [SEQ ID NO: 42]
- peptide-specific IFN-gamma production (ELISPOT) (peptide-pulsed C1R-A01): not observed
- IFN-gamma production by the CTL line (ELISA) ([3]; listed as FOXM1-A33-10-265): observed; also recorded: CTL lines that produce IFN-gamma in a peptide-specific manner were established

Sequence: AARDVNLPR (a peptide derived from FOXM1) [SEQ ID NO: 7]
- peptide-specific IFN-gamma production of CTL clone (ELISA) ([1]; listed as FOXM1-A33-9-146): showed a peptide-specific IFN-gamma production
- IFN-gamma production by the CTL line (ELISA) ([3]; listed as FOXM1-A33-9-146): observed; also recorded: CTL lines that produce IFN-gamma in a peptide-specific manner were established

Sequence: SLSNIQWLR (a peptide derived from FOXM1) [SEQ ID NO: 1]
- peptide-specific IFN-gamma production (ELISPOT) (peptide-pulsed C1R-A33): observed

Sequence: NLSLHDMFVR (a peptide derived from FOXM1) [SEQ ID NO: 25]
- peptide-specific IFN-gamma production (ELISPOT) (peptide-pulsed C1R-A33): not observed

Sequence: KTELPLGARR (a peptide derived from FOXM1) [SEQ ID NO: 61]
- peptide-specific IFN-gamma production (ELISPOT) (peptide-pulsed C1R-A01): observed

Sequence: ASLMSSELAR (a peptide derived from FOXM1) [SEQ ID NO: 46]
- peptide-specific IFN-gamma production (ELISPOT) (peptide-pulsed C1R-A33): observed

Sequence: MSSELARHSK (a peptide derived from FOXM1) [SEQ ID NO: 39]
- IFN-gamma production by the CTL line (ELISA) ([3]; listed as FOXM1-A33-10-391): observed; also recorded: CTL lines that produce IFN-gamma in a peptide-specific manner were established

Sequence: VSERPPYSY (a peptide derived from FOXM1) [SEQ ID NO: 48]
- peptide-specific IFN-gamma production of CTL clone (ELISA) [4]: showed a peptide-specific IFN-gamma production

Reference: US11242365B2, “FOXM1-derived peptide, and vaccine including same” (OncoTherapy Science, Inc., priority 2015, dated 2022)
